# Measured values as given in patent publication US12110494B2, “Method for biologically producing sugar alcohol from agar” (Korea University Research and Business Foundation, priority 2018, dated 2024).
# Experiments:
# [1] = target: T1, AR expressed by a GRE3 gene derived from S. cerevisiae (Saccharomyces cerevisiae, UniProt P38715); experiment: Reduction of L-AHG and AB by AR (NADPH decrease at 340 nm); type: biochemical; settings: substrate 2 mM, 1 mM NADPH, pH 6.0 sodium phosphate buffer, 30° C., FIG. 3B
# T1 construct: A target gene GRE3 was amplified from the genomic DNA by PCR; His6 (C); made in house
# T1 sequence (P38715 1-327): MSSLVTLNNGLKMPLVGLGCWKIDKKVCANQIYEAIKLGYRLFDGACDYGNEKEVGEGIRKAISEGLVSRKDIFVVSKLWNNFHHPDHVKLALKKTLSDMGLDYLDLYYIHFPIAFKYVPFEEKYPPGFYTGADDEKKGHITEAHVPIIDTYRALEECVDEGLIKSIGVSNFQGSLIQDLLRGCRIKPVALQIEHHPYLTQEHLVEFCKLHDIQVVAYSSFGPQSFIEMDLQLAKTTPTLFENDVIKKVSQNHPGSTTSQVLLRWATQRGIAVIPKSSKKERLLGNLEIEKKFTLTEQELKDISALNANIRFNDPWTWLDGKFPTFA
# Procedure: An enzymatic reaction was performed in a pH 6.0 sodium phosphate buffer at 30° C. 1 mM NADPH was used as a cofactor, and each substrate was allowed to react at 2 mM and a protein concentration of 9.36 nmol.
# [2] = target: T2, β-galactosidase expressed by LAC4 (Kluyveromyces lactis, UniProt P00723); experiment: AB hydrolysis by LAC4 in coenzyme obtained from lysed cells; type: biochemical, K. lactis; settings: substrate 2 g/L
# T2 construct: expressed in transfected cells; host or cells: Saccharomyces cerevisiae D452-2-L124 (crude lysate supernatant)
# T2 sequence (P00723 whole entry): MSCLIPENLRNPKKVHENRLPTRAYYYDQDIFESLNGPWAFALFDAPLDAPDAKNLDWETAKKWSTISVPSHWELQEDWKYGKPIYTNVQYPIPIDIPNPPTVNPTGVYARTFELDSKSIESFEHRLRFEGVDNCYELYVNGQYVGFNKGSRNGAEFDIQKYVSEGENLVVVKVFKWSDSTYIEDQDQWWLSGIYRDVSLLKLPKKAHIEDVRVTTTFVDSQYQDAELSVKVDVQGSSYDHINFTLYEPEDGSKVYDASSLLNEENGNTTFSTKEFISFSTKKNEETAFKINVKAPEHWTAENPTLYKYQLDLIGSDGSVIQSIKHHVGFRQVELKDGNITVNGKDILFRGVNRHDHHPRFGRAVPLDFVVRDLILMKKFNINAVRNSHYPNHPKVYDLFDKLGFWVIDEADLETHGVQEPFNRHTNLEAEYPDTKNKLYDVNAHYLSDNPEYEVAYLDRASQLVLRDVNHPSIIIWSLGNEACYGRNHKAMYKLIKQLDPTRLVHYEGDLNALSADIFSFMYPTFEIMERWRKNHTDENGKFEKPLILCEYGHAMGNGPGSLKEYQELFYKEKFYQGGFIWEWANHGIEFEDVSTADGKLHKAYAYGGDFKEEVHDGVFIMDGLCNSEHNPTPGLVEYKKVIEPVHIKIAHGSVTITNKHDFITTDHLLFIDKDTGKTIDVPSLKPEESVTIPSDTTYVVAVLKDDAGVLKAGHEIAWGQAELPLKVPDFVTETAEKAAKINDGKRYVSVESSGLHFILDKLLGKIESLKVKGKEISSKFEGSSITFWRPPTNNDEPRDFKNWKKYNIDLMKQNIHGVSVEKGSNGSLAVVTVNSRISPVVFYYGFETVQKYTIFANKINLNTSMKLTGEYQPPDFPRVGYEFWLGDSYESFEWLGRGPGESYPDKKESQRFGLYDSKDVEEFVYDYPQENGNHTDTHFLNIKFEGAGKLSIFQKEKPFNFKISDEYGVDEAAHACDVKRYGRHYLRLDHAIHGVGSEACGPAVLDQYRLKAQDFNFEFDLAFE
# Procedure: The AB hydrolysis ability of LAC4 was examined for the constructed strain D452-2-L124 and controls D452-2-L12 and parent D452-2. Since a method of verifying AB hydrolysis is to verify the enzymatic reaction in the cell, a protein, that is, a coenzyme, obtained by growth, collection, and lysis of each cell was used to measure the AB hydrolysis ability. More specifically, each strain was allowed to grow in a YP medium, which is a nutrient broth containing 20 g/L of glucose, at 30° C. and centrifuged in the mid-exponential growth phase at 3,000 g for 10 minutes to collect cells. The collected cells were released with a 20 mM Tris-HCl (pH 7.4) buffer and then lyzed using a sonicator. The lyzed cells were centrifuged at 4° C. and 10,000 g for 10 minutes. The resultant was analyzed by BCA protein concentration quantification to measure the concentration of a coenzyme.
# Enzymatic reaction conditions for AB hydrolysis by LAC4 were as follows. AB and lactose as a positive control were used as substrates in the experiment. Each substrate with a concentration of 2 g/L and a coenzyme at 0.5 g/L were reacted in a sodium acetate (pH 6.0) buffer at 30° C. […] This is due to a structural difference between AB and lactose. In this way, it is expected that AB brought into the cell by LAC12 will be hydrolyzed by LAC4.
# D452-2-L12 [3] = experiment: Intracellular AB uptake by LAC12 in minimal medium; type: cell-based, S. cerevisiae; settings: minimal medium (Verduyn), without carbon source, FIG. 4A
# Procedure: To confirm the possibility that, […], AB is consumed together or AB is uptaken into the cell by producing energy from the carbon source, […], and then AB consumption experiments were performed for D452-2-L12 and parent D452-2 as a control. […]
# parent D452-2 [4] = experiment: Intracellular AB uptake in minimal medium, control strain; type: cell-based, S. cerevisiae; settings: minimal medium (Verduyn), without carbon source, FIG. 4D
# Procedure: To confirm the possibility that, when a carbon source that may be consumed by a transporter is provided, AB is consumed together or AB is uptaken into the cell by producing energy from the carbon source, […], and then AB consumption experiments were performed for D452-2-L12 and parent D452-2 as a control. As a result, both when glucose (FIG. 4B) was provided and when galactose (FIG. 4C) was provided, only D452-2-L12 was able to consume AB and produced ABol. […] Therefore, D452-2-L12 was able to consume AB by LAC12.
# D452-2-L124 = experiment: Cell growth inhibition according to AB concentration; type: cell-based, S. cerevisiae
# From the text: (§1) An experiment for confirming the growth inhibition effect is as follows. […] This is because an increase in AB concentration causes a glucose (carbon source) consumption rate to be decreased (FIG. 6B).
# D452-2-L12 [5] = experiment: as above; type: cell-based, S. cerevisiae; settings: 20 g/L glucose
# From the text: as §1
# parent D452-2 [6] = experiment: as above; type: cell-based, S. cerevisiae; settings: 20 g/L glucose
# From the text: as §1
# [7] = Thermal stability (degree of denaturation over time); type: physicochemical; settings: at 4, 25, 50, and 70° C., FIGS. 11A-11D
# Procedure: To confirm whether L-AHGol and L-ABol, which were produced by fermentation and separated by size exclusion chromatography, are actually stable against heat, L-AHG and AB were experimentally compared. The experiment was performed by measuring the degree of denaturation of each substance over time at 4, 25, 50, and 70° C.
# Streptococcus mutans = settings: reported; cited from earlier work
# [8] = AB 0, 10, 20, 50 g/L, minimal medium, 30° C., FIG. 6A
smiles,measurement,setting,value
"OC[C@H]1O[C@@H](O[C@H]2[C@H]3OC[C@@H]2OC(O)[C@H]3O)[C@H](O)[C@@H](O)[C@H]1O (mixture of isomers) [AB, agarobiose]",reactivity with AR,[1],converted into ABol by AR
same,AB hydrolysis,"[2]; coenzyme from D452-2-L124 0.5 g/L, sodium acetate pH 6.0, 30° C., FIG. 5",best hydrolyzed
same,AB hydrolysis,"[2]; coenzymes from strains not expressing LAC4 (D452-2-L12 and parent D452-2), pH 6.0, 30° C.",hardly hydrolyzed
same,reactivity to β-galactosidase compared with lactose,"[2]; coenzyme 0.5 g/L, pH 6.0, 30° C.",less reactive
same,AB consumption from medium,D452-2-L12 [3],intracellularly consumed AB
same,AB consumption from medium,parent D452-2 [4],did not decrease
same,specific growth rate as AB concentration increased,"D452-2-L124; AB 0, 10, 20, 50 g/L, 20 g/L glucose, minimal medium, 30° C., FIG. 6A",most sharply decreased
same,growth,"D452-2-L124; AB concentration 50 g/L, 20 g/L glucose",did not grow
same,glucose (carbon source) consumption rate on increase in AB concentration,"D452-2-L124; each strain showed a tendency similar to the specific growth rate, FIG. 6B",decreased
same,specific growth rate as AB concentration increased,D452-2-L12 [5]; [8],decreased as the AB concentration increased
same,growth,D452-2-L12 [5]; AB concentration 50 g/L,did not grow
same,specific growth rate as AB concentration increased,parent D452-2 [6]; [8],not affected until the AB concentration was 20 g/L
same,growth,parent D452-2 [6]; AB concentration 50 g/L,slowly grew afterward
same,"thermal stability, degree of denaturation over time",[7],denatured over time at 50 °C or more
"O=C[C@@H](O)[C@@H]1OC[C@H](O)[C@H]1O [L-AHG, 3,6-anhydro-L-galactose]",reactivity with AR,[1],then with L-AHG
same,"thermal stability, degree of denaturation over time",[7],denatured over time at 50 °C or more
same,antibacterial effect,Streptococcus mutans,antibacterial effect
O=C[C@H](O)[C@@H](O)[C@H](O)CO [xylose],reactivity with AR,[1],reacted best
"OC[C@@H](O)[C@@H]1OC[C@H](O)[C@H]1O [L-AHGol, 3,6-anhydro-L-galactitol]","thermal stability, degree of denaturation over time",[7],very stable without being denatured even at 70 °C
"OC[C@@H](O)[C@@H]1OC[C@H](O)[C@H]1O[C@@H]1O[C@H](CO)[C@H](O)[C@H](O)[C@H]1O [ABol, agarobititol]","thermal stability, degree of denaturation over time",[7],very stable without being denatured even at 70 °C
